Assay results taken from PMC9870890 (Nature Communications, 2023).
Numbering of substitutions follows the chain as printed. pIC50: −log10 of the molar value. “And” between values parts separate entries of the source, which are not always exact repeats. Equal values may be shown once.

Key:
M2R L129^34.51A mutant = biological target: T1, M2R L129^34.51A mutant (Homo sapiens, UniProt P08172, L129A); assay: NanoBiT-GoA dissociation assay, L129A mutant M2R
T1 sequence (P08172 1-466 L129A): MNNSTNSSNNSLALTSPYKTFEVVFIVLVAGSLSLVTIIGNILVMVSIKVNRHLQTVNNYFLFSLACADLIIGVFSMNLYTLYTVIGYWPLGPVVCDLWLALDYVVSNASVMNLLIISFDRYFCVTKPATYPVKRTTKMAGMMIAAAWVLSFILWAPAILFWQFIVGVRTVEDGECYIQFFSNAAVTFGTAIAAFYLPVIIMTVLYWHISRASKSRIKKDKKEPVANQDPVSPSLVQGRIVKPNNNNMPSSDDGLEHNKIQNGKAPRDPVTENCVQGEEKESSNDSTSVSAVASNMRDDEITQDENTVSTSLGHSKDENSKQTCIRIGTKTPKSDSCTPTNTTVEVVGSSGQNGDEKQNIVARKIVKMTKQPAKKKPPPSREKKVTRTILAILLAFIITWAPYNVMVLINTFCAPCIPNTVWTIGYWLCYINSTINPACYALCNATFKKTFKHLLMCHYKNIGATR
Description: Plasmid transfection for HEK293A cells (Thermo Fisher Scientific) was performed by combining 25 µl (volume is per 10-cm culture dish) of polyethylenimine solution (1 mg/mL) and a mixture of plasmids each encoding the large fragment (LgBiT)-containing the GαoA subunit (500 ng), the small fragment (SmBiT)-fused Gγ2 subunit with the C68S mutation (2.5 µg) and the untagged Gβ1 subunit (2.5 µg), along with a human, wild-type M2R (1 µg; containing N-terminal HA-derived signal sequence followed by the FLAG-epitope tag). After an incubation for one day, the transfected cells were harvested, pelleted with centrifugation, and suspended in 9 ml of Hank’s balanced saline solution (HBSS) containing 0.01% bovine serum albumin (BSA fatty acid–free grade, SERVA) and 5 mM HEPES (pH 7.4) (assay buffer). The cell suspension was dispensed in a white 96-well plate at a volume of 70 µl per well and mixed with 20 µl of 50 µM coelenterazine (Carbosynth) diluted in the assay buffer. […] Kinetics data points from 5 min to 10 min were averaged and normalized to the initial count and used as a G-protein dissociation index. For the mutant study, the cell culture and the transfection mixture were scaled down to a 6-cm dish (4 ml culture media) and the transfected cells were suspended in 4 ml of the assay buffer and seeded in the 96-well plate at a volume of 80 µL. The G-protein dissociation signals were fitted to a four-parameter sigmoidal concentration-response curve (GraphPad Prism8). For each experiment, we calculated Emax by normalizing Span to the LY2119620-free condition and ∆pEC50 by subtracting pEC50 of the LY2119620-free condition performed in parallel and used the values to denote allosteric modulator activity. Similarly, for the mutant study, we calculated ∆pEC50 by subtracting pEC50 of the WT (1:1) condition performed in parallel.

M2R and GoA = biological target: T2, M2R and GoA (Homo sapiens, UniProt P08172); assay: GTPase-Glo assay (GTP turnover) with purified M2R and GoA; format: biochemical; settings: for Residual GTP (%): 90 min, normalized to GoA alone
T2 construct: FLAG (N); 8xHis (C); made in house; host or cells: Sf9 insect cells (receptor)
T2 sequence (P59768 2-68): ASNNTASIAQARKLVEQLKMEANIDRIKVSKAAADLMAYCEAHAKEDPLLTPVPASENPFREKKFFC
T2 sequence (P09471 2-354, further chain): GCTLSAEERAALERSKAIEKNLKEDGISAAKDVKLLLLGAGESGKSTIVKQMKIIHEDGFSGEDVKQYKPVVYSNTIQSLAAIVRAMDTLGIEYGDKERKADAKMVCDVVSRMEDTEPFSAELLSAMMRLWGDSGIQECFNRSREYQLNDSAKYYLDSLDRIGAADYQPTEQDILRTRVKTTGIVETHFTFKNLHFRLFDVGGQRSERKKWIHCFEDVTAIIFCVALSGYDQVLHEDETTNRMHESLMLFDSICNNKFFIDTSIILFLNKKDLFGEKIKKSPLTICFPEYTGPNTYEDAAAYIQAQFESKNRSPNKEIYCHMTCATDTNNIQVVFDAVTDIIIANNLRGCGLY
T2 sequence (P08172 whole entry): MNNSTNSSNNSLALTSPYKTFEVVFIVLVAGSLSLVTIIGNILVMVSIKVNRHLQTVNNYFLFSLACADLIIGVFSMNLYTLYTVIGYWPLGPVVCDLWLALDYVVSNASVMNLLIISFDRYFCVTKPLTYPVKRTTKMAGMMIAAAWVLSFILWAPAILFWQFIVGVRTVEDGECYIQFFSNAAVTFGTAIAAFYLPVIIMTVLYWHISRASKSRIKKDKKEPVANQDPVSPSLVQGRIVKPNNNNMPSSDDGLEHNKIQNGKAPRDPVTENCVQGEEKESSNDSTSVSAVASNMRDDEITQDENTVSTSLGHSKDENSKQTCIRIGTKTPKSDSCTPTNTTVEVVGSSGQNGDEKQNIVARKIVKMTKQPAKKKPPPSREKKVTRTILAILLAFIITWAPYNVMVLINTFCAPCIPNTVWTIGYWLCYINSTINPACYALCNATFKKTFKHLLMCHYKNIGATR
T2 sequence (P62873 whole entry, further chain): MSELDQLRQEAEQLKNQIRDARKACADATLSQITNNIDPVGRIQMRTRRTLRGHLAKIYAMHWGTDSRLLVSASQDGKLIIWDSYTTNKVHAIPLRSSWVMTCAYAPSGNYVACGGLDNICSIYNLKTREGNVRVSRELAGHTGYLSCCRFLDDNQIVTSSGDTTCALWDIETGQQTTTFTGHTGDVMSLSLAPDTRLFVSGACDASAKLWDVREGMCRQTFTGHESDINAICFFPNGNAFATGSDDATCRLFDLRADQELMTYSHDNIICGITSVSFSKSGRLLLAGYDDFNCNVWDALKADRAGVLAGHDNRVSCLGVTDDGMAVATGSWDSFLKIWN
Description: The receptors for GTPase-Glo^TM assay were expressed and purified as described above and frozen at −80 °C before use. […] The GTPase reaction was incubated at room temperature (22–25 °C) for different times (15–90 min). […] After incubation, 5 μL reconstituted 1xGTPase-Glo^TM Reagent (Promega) was added to the completed GTPase reaction, mixed briefly and incubated with shaking for 30 min at room temperature (22–25 °C) to convert the remaining GTP into ATP. Then 10 μL Detection Reagent (Promega) was added to the system and incubated for 5-10 min at room temperature (22–25 °C) to convert the ATP into luminescent signals. Luminescence intensity was quantified using a Multimode Plate Reader (PerkinElmer) luminescence counter.

human, wild-type M2R = biological target: T3, human, wild-type M2R (Homo sapiens, UniProt P08172); assay: NanoBiT-G-protein (GoA) dissociation assay, wild-type M2R, HEK293A cells; format: cell-based; settings: for NanoBiT-GoA dissociation signal, Mean (Veh = 1.000): n = 4
T3 construct: expressed in transfected cells; host or cells: HEK293A
T3 sequence (P08172 1-466): T1 sequence (P08172 1-466 L129A) with A129L
Description: Plasmid transfection for HEK293A cells (Thermo Fisher Scientific) was performed by combining 25 µl (volume is per 10-cm culture dish) of polyethylenimine solution (1 mg/mL) and a mixture of plasmids each encoding the large fragment (LgBiT)-containing the GαoA subunit (500 ng), the small fragment (SmBiT)-fused Gγ2 subunit with the C68S mutation (2.5 µg) and the untagged Gβ1 subunit (2.5 µg), along with a human, wild-type M2R (1 µg; containing N-terminal HA-derived signal sequence followed by the FLAG-epitope tag). After an incubation for one day, the transfected cells were harvested, pelleted with centrifugation, and suspended in 9 ml of Hank’s balanced saline solution (HBSS) containing 0.01% bovine serum albumin (BSA fatty acid–free grade, SERVA) and 5 mM HEPES (pH 7.4) (assay buffer). The cell suspension was dispensed in a white 96-well plate at a volume of 70 µl per well and mixed with 20 µl of 50 µM coelenterazine (Carbosynth) diluted in the assay buffer. After 2 h incubation at room temperature, the plate was measured for baseline luminescence (SpectraMax L, Molecular Devices) and 10 µl of titrated concentrations of LY2119620 diluted in the assay buffer were added. […] Kinetics data points from 5 min to 10 min were averaged and normalized to the initial count and used as a G-protein dissociation index. […] The G-protein dissociation signals were fitted to a four-parameter sigmoidal concentration-response curve (GraphPad Prism8). For each experiment, we calculated Emax by normalizing Span to the LY2119620-free condition and ∆pEC50 by subtracting pEC50 of the LY2119620-free condition performed in parallel and used the values to denote allosteric modulator activity.

M2R = biological target: T4, M2R (Homo sapiens, UniProt P08172); assay: biochemical; format: binding; set-up: expressed in transfected cells; settings: for pIC50: IC50 ([3H]-NMS competition)
T4 sequence (P08172 1-466): T1 sequence (P08172 1-466 L129A) with A129L
Description: Purified M2R receptor was reconstituted into high-density lipoprotein (HDL) particles constituting apolipoprotein A1(APOA1) and mixture of POPG: POPC lipids with 3:2 (mol:mol)ratio as previously described. […] Membranes or HDL particles were separated from excess [^3H]-NMS by Whatman GF/B filters using a Brandel 48-well harvester. The bound radioligand were read on a liquid scintillation counter (MicroBeta Jet, PerkinElmer). Data were analyzed by GraphPad Prism 9.2.0.

Mock = assay: NanoBiT-GoA dissociation assay, Mock-transfected cells (control); format: cell-based

## C[N+](C)(C)CC#CCOC1=NOCC1 [Ixo, iperoxo]
M2R L129^34.51A mutant
  ∆pEC50: -0.434 and -0.475 and -0.315
M2R L129^34.51A mutant; IXO Log [M] -6, n = 3
  NanoBiT-GoA dissociation signal, Mean (Veh = 1.000): 0.336
M2R L129^34.51A mutant; IXO Log [M] -7, n = 3
  NanoBiT-GoA dissociation signal, Mean (Veh = 1.000): 0.355
M2R L129^34.51A mutant; IXO Log [M] -8, n = 3
  NanoBiT-GoA dissociation signal, Mean (Veh = 1.000): 0.423
M2R L129^34.51A mutant; IXO Log [M] -9, n = 3
  NanoBiT-GoA dissociation signal, Mean (Veh = 1.000): 0.635
M2R L129^34.51A mutant; IXO Log [M] -10, n = 3
  NanoBiT-GoA dissociation signal, Mean (Veh = 1.000): 0.887
M2R L129^34.51A mutant; IXO Log [M] -11, n = 3
  NanoBiT-GoA dissociation signal, Mean (Veh = 1.000): 0.985
M2R L129^34.51A mutant; IXO Log [M] -12, n = 3
  NanoBiT-GoA dissociation signal, Mean (Veh = 1.000): 1.001
M2R and GoA; +DMSO
  Residual GTP (%): 7.331% and 3.598% and 1.619%
M2R and GoA; +LY2119620 (100 μM)
  Residual GTP (%): 34.958% and 41.3656% and 22.0231%
M2R and GoA; time 15 min, 100 μM ACh or 10 μM Ixo, M2R-GoA
  GTP-turnover, Fig. 1c (GTPase-Glo luminescence): 432481 and 362971 and 431239 and 324973
human, wild-type M2R; WT (1:1), reference
  ∆pEC50: 0.000
human, wild-type M2R; WT (1:1), IXO Log [M] -6
  NanoBiT-GoA dissociation signal, Mean (Veh = 1.000): 0.334
human, wild-type M2R; WT (1:1), IXO Log [M] -7
  NanoBiT-GoA dissociation signal, Mean (Veh = 1.000): 0.343
human, wild-type M2R; WT (1:1), IXO Log [M] -8
  NanoBiT-GoA dissociation signal, Mean (Veh = 1.000): 0.377
human, wild-type M2R; WT (1:1), IXO Log [M] -9
  NanoBiT-GoA dissociation signal, Mean (Veh = 1.000): 0.510
human, wild-type M2R; WT (1:1), IXO Log [M] -10
  NanoBiT-GoA dissociation signal, Mean (Veh = 1.000): 0.788
human, wild-type M2R; WT (1:1), IXO Log [M] -11
  NanoBiT-GoA dissociation signal, Mean (Veh = 1.000): 0.961
human, wild-type M2R; WT (1:1), IXO Log [M] -12
  NanoBiT-GoA dissociation signal, Mean (Veh = 1.000): 1.000
human, wild-type M2R; WT (1:2)
  ∆pEC50: -0.203 and -0.153 and -0.342 and -0.212
human, wild-type M2R; WT (1:2), IXO Log [M] -6
  NanoBiT-GoA dissociation signal, Mean (Veh = 1.000): 0.338
human, wild-type M2R; WT (1:2), IXO Log [M] -7
  NanoBiT-GoA dissociation signal, Mean (Veh = 1.000): 0.345
human, wild-type M2R; WT (1:2), IXO Log [M] -8
  NanoBiT-GoA dissociation signal, Mean (Veh = 1.000): 0.397
human, wild-type M2R; WT (1:2), IXO Log [M] -9
  NanoBiT-GoA dissociation signal, Mean (Veh = 1.000): 0.567
human, wild-type M2R; WT (1:2), IXO Log [M] -10
  NanoBiT-GoA dissociation signal, Mean (Veh = 1.000): 0.844
human, wild-type M2R; WT (1:2), IXO Log [M] -11
  NanoBiT-GoA dissociation signal, Mean (Veh = 1.000): 0.975
human, wild-type M2R; WT (1:2), IXO Log [M] -12
  NanoBiT-GoA dissociation signal, Mean (Veh = 1.000): 1.005
M2R; M2R in HDL particles, +GoA
  pIC50: 8.74
M2R; M2R in HDL particles, absence of GoA
  pIC50: 7.32
M2R; M2R in HDL particles
  increase of affinity on addition of GoA: ~ 27 fold
M2R; log[M] -6, without GoA
  competition curve data, Fig. 1b ([3H]-NMS binding): 5.629 and 5.897 and 4.938
M2R; log[M] -7, +GoA
  competition curve data, Fig. 1b ([3H]-NMS binding): 1.735 and 2.591
M2R; log[M] -7, without GoA
  competition curve data, Fig. 1b ([3H]-NMS binding): 32.2784 and 32.9838 and 32.0245
M2R; log[M] -8, +GoA
  competition curve data, Fig. 1b ([3H]-NMS binding): 6.41 and 4.7831 and 8.225
M2R; log[M] -8, without GoA
  competition curve data, Fig. 1b ([3H]-NMS binding): 80.5549 and 71.1592 and 70.0024
M2R; log[M] -9, +GoA
  competition curve data, Fig. 1b ([3H]-NMS binding): 64.4578 and 59.7146 and 77.1975
M2R; log[M] -9, without GoA
  competition curve data, Fig. 1b ([3H]-NMS binding): 92.3489 and 93.3083 and 87.8063
M2R; log[M] -10, +GoA
  competition curve data, Fig. 1b ([3H]-NMS binding): 85.6735 and 79.355 and 99.5434
M2R; log[M] -10, without GoA
  competition curve data, Fig. 1b ([3H]-NMS binding): 97.3148 and 101.914 and 100.771
M2R; log[M] -11, +GoA
  competition curve data, Fig. 1b ([3H]-NMS binding): 89.0468 and 92.1461 and 118.807
M2R; log[M] -11, without GoA
  competition curve data, Fig. 1b ([3H]-NMS binding): 86.0992 and 80.6395 and 89.0477
M2R; log[M] -12, +GoA
  competition curve data, Fig. 1b ([3H]-NMS binding): 107.797 and 98.7044 and 86.8037
M2R; log[M] -12, without GoA
  competition curve data, Fig. 1b ([3H]-NMS binding): 98.7115 and 87.2702 and 99.5439
Mock; IXO Log [M] -6, n = 3
  NanoBiT-GoA dissociation signal, Mean (Veh = 1.000): 0.990
Mock; IXO Log [M] -7, n = 3
  NanoBiT-GoA dissociation signal, Mean (Veh = 1.000): 0.997
Mock; IXO Log [M] -8, n = 3
  NanoBiT-GoA dissociation signal, Mean (Veh = 1.000): 0.995
Mock; IXO Log [M] -9, n = 3
  NanoBiT-GoA dissociation signal, Mean (Veh = 1.000): 1.002
Mock; IXO Log [M] -10, n = 3
  NanoBiT-GoA dissociation signal, Mean (Veh = 1.000): 1.001
Mock; IXO Log [M] -11, n = 3
  NanoBiT-GoA dissociation signal, Mean (Veh = 1.000): 1.005
Mock; IXO Log [M] -12, n = 3
  NanoBiT-GoA dissociation signal, Mean (Veh = 1.000): 1.002
